Measurements from patent US5214070A, “Diaryl ether cycloalkanes” (Imperial Chemical Industries PLC, priority 1989, dated 1993).
pIC50: −log10 of the molar value.

Test system: 5-LO
Assay: Test b): A23187-challenged heparinised human blood, LTB4 radioimmunoassay
Assay type: cell-based
Settings: A23187 challenge
Description: b) An in vitro assay system involving incubating a test compound with heparinised human blood, prior to challenge with the calcium ionophore A23187 and then indirectly measuring the inhibitory effects on 5-LO by assaying the amount of LTB4 using the specific radioimmunoassay described by Carey and Forder (F. Carey and R. A. Forder, Brit. J. Pharmacol. 1985, 84, 34P) which involves the use of a protein-LTB4 conjugate produced using the procedure of Young et alia (Prostaglandins, 1983, 26(4), 605-613). The effects of a test compound on the enzyme cyclooxygenase (which is involved in the alternative metabolic pathway for arachidonic acid and gives rise to prostaglandins, thromboxanes and related metabolites) may be measured at the same time using the specific radioimmunoassay for thromboxane B2 (TxB2) described by Carey and Forder (see above). This test provides an indication of the effects of a test compound against 5-LO and also cyclooxygenase in the presence of blood cells and proteins. It permits the selectivity of the inhibitory effect on 5-LO or cyclooxygenase to be assessed.

Row | SMILES | pIC50
1 | C=CCO[C@@]1(c2cc(F)cc(Sc3ccc4ccccc4c3)c2)CCC[C@@H]1OC (racemic) [(1RS,2SR)-1-allyloxy-1-[5-fluoro-3-(naphth-2-ylthio)phenyl]-2-methoxycyclopentane] | ~6.70
2 | CO[C@H]1CCC[C@@]1(OC)c1cc(F)cc(Sc2ccc3ccccc3c2)c1 (racemic) [(1RS,2SR)-1-[5-fluoro-3-(naphth-2-ylthio)phenyl]-1,2-dimethoxycyclopentane] | ~6.70
